System: 349418-098-R-PDC spheroids, viability, % test/control
Assay: Anticancer human tumor 349418-098-R-PDC patient-derived lung adenocarcinoma cell line growth inhibition [IpAb]
Settings: spheroids with HUVEC and MSC; for IC50: curve of first compound; for viability, T/C: stronger effect = lower value; active = viability on the fitted dose curve at most 10% of control; inactive = the rest
Description: Combinatorial screen of targeted agents with ipatasertib and abemaciclib in multi-cell type tumor spheroids
A high-throughput screen of multi-cell type tumor spheroids was designed to identify active combinations of targeted small molecules and ipatasertib or abemaciclib. Complex spheroids include a stromal component modeled by human endothelial cells (HUVEC) and fibroblasts modeled by human mesenchymal stem cells (MSCs). The concentration ranges selected for each drug and investigational agent were based upon clinically achievable concentrations if the clinical Cmax of the agent was known.
Compounds. The drugs and investigational agents: ipatasertib (NSC767898), abemaciclib(NSC768073), selumetinib (NSC741078), trametinib (758246), adavosertib (NSC754352), everolimus (NSC733504), sapanisertib (NSC764658), vemurafenib (NSC761431), venetoclax (NSC766270), copanlisib (NSC809693), apelisib (NSC765974), palbociblib (NSC758247), vemurafenib (NSC761431), dabrafenib (NSC764134), ravoxertinib (NSC781343), BMS-387032 (NSC767048), sotorasib (NSC818433), talazoparib (NSC767125) and afursertib (NSC778305), were obtained from the National Cancer Institute (NCI) Developmental Therapeutics Program Chemical Repository. The FDA-approved anticancer drug set is available from the NCI Developmental Therapeutics Program. […] The stock solutions were prepared in dimethyl sulfoxide (DMSO, Sigma-Aldrich, St. Louis, MO, cat. D2650) at 800-fold the tested concentration and stored at -70 degrees C prior to their use. All drugs and investigational agents were tested over a range starting from a high concentration at or near the clinical Cmax and decreasing in half-log increments. If the clinical Cmax for an agent had not been determined, the highest concentration tested was 10 microM.
NCI60 Cell Culture. NCI60 cell lines were obtained from the NCI Developmental Therapeutics Program Tumor Repository. For each lot of cells, the Repository performed Applied Biosystems AmpFLSTR Identifiler testing with PCR amplification to confirm consistency with the published Identifier STR profile for each cell line. Cells were kept in continuous culture for no more than 20 passages. The optimal seeding densities for each of the cell lines at each time point assessed were determined prior to performing the concentration response studies. Briefly, the NCI60 human tumor lines were grown as monolayers in RPMI 1640 medium supplemented with 10% FBS and 2 mmol/L L-glutamine.
An additional 9 lines were from the NCI60 cell line panel including MDA-MB-231 breast carcinoma, MDA-MB-468 breast carcinoma, MCF7 breast carcinoma, Hs578T breast carcinoma, MALME-3M melanoma, SK-MEL-2 melanoma, SK-OV-3 ovarian carcinoma, DU-145 prostate carcinoma, PC-3 prostate carcinoma, all cell lines along with major genetic alterations are listed on Table 2. Pooled donor human umbilical vein endothelial cells (HUVEC, Lonza, cat. CC-2519) and human mesenchymal stem cells (hMSC, Lonza, cat. PT-2501) were purchased from Lonza (Walkersville, MD).
PDMR cell lines were grown in complete medium (DC medium): Dulbecco's modified Eagle's medium (DMEM)/F12 supplemented with 5% fetal bovine serum (FBS), 2 mM L-glutamine, 100 U/mL penicillin and 100 µg/ml streptomycin, 0.4 µg/ml hydrocortisone, 10 ng/ml epidermal growth factor (EGF) recombinant human protein, 24 µg/mL adenine, and 0.1 mg/mL primocin. During culture from frozen stock vials, PDMR cells were cultured in the same medium containing 10 µM Y-27632 (see Table 3). The PDCs were cultured in complete DMEM/F12 media without 10 microM Y-27632 dihydrochloride for at least two passages prior to the screen. The pooled donor HUVEC and hMSC were cultured in endothelial cell growth medium 2 (PromoCell, Heidelberg, Germany, cat. C-22011) and mesenchymal stem cell growth medium 2 (PromoCell, cat. C-28009), respectively. For all experiments, HUVEC and hMSC were used at passages </=5.
[…]

[1] = second compound 0.1 µM, first compound 0.00316 µM
[2] = second compound 0.1 µM, first compound 0.01 µM
[3] = second compound 0.1 µM, first compound 0.0316 µM
[4] = second compound 0.1 µM, first compound 0.1 µM
[5] = second compound 0.316 µM, first compound 0.00316 µM
[6] = second compound 0.316 µM, first compound 0.01 µM
[7] = second compound 0.316 µM, first compound 0.0316 µM
[8] = second compound 0.316 µM, first compound 0.1 µM
[9] = second compound 1 µM, first compound 0.00316 µM
[10] = second compound 1 µM, first compound 0.01 µM
[11] = second compound 1 µM, first compound 0.0316 µM
[12] = second compound 1 µM, first compound 0.1 µM
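Note: spheroids exposed to compounds for 7 days.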

COc1c(OCCCN2CCOCC2)ccc2c3n(c(=NC(=O)c4cnc(N)nc4)nc12)CCN3 + CCN1CCN(Cc2ccc(Nc3ncc(F)c(-c4cc(F)c5nc(C)n(C(C)C)c5c4)n3)nc2)CC1
5.6 nM: IC50 (second compound 0.01 µM)
< 3.16 nM: IC50 (second compound 0.0316 µM) | IC50 (second compound 0.1 µM) | IC50 (second compound 0.316 µM) | IC50 (second compound 1 µM)
inactive: viability, T/C (second compound 0.01 µM, first compound 0.00316 µM) 66.8% | viability, T/C (second compound 0.01 µM, first compound 0.01 µM) 32.9% | viability, T/C (second compound 0.0316 µM, first compound 0.00316 µM) 48.8% | viability, T/C (second compound 0.0316 µM, first compound 0.01 µM) 13.5% | viability, T/C [1] 23.6% | viability, T/C [2] 14% | viability, T/C [5] 15.9% | viability, T/C [6] 10.6% | viability, T/C [9] 14% | viability, T/C [10] 12.3%
active: viability, T/C (second compound 0.01 µM, first compound 0.0316 µM) 9.39% | viability, T/C (second compound 0.01 µM, first compound 0.1 µM) 6.45% | viability, T/C (second compound 0.01 µM, first compound 0.316 µM) 6.48% | viability, T/C (second compound 0.01 µM, first compound 1 µM) 6.24% | viability, T/C (second compound 0.0316 µM, first compound 0.0316 µM) 8.91% | viability, T/C (second compound 0.0316 µM, first compound 0.1 µM) 6.1% | viability, T/C (second compound 0.0316 µM, first compound 0.316 µM) 5.57% | viability, T/C (second compound 0.0316 µM, first compound 1 µM) 5.71% | viability, T/C [3] 8.06% | viability, T/C [4] 6.16% | viability, T/C (second compound 0.1 µM, first compound 0.316 µM) 6.04% | viability, T/C (second compound 0.1 µM, first compound 1 µM) 5.83% | viability, T/C [7] 7.73% | viability, T/C [8] 6.28% | viability, T/C (second compound 0.316 µM, first compound 0.316 µM) 6.11% | viability, T/C (second compound 0.316 µM, first compound 1 µM) 6.92% | viability, T/C [11] 8.15% | viability, T/C [12] 6.25% | viability, T/C (second compound 1 µM, first compound 0.316 µM) 7.04% | viability, T/C (second compound 1 µM, first compound 1 µM) 7.33%

Cn1ncnc1[C@H]1c2n[nH]c(=O)c3cc(F)cc(c23)N[C@@H]1c1ccc(F)cc1 + CC(C)NCC(C(=O)N1CCN(c2ncnc3c2C(C)CC3O)CC1)c1ccc(Cl)cc1
active: viability, T/C (second compound 3.16 µM, first compound 0.0316 µM) 9.16% | viability, T/C (second compound 3.16 µM, first compound 0.1 µM) 7.75% | viability, T/C (second compound 10 µM, first compound 0.000316 µM) 9.03% | viability, T/C (second compound 10 µM, first compound 0.001 µM) 7.63% | viability, T/C (second compound 10 µM, first compound 0.00316 µM) 6.62% | viability, T/C (second compound 10 µM, first compound 0.01 µM) 6.38% | viability, T/C (second compound 10 µM, first compound 0.0316 µM) 5.72% | viability, T/C (second compound 10 µM, first compound 0.1 µM) 6.34%
> 100 nM: IC50 (second compound 0.1 µM)
inactive: viability, T/C (second compound 0.1 µM, first compound 0.000316 µM) 82.5% | viability, T/C (second compound 0.1 µM, first compound 0.001 µM) 80.5% | viability, T/C [1] 77.3% | viability, T/C [2] 70% | viability, T/C [3] 68.7% | viability, T/C [4] 76.7% | viability, T/C (second compound 0.316 µM, first compound 0.000316 µM) 52.6% | viability, T/C (second compound 0.316 µM, first compound 0.001 µM) 48.4% | viability, T/C [5] 42.8% | viability, T/C [6] 46.8% | viability, T/C [7] 41.7% | viability, T/C [8] 37% | viability, T/C (second compound 1 µM, first compound 0.000316 µM) 26.4% | viability, T/C (second compound 1 µM, first compound 0.001 µM) 24.1% | viability, T/C [9] 18.9% | viability, T/C [10] 16.7% | viability, T/C [11] 17.2% | viability, T/C [12] 17.1% | viability, T/C (second compound 3.16 µM, first compound 0.000316 µM) 13.8% | viability, T/C (second compound 3.16 µM, first compound 0.001 µM) 15.8% | viability, T/C (second compound 3.16 µM, first compound 0.00316 µM) 11.1% | viability, T/C (second compound 3.16 µM, first compound 0.01 µM) 10.2%
0.621 nM: IC50 (second compound 0.316 µM)
< 0.316 nM: IC50 (second compound 1 µM) | IC50 (second compound 3.16 µM) | IC50 (second compound 10 µM)

— PubChem BioAssay AID2060340 (Molecular Pharmacology Branch, DTP, NCI, 2025)
